Experimental findings from PMC6832705, “Menthol Increases Bendiocarb Efficacy Through Activation of Octopamine Receptors and Protein Kinase A” (Molecules, 2019) are described below.

For the assay, the target named is T1, acetylcholinesterase (AChE).
T1 construct: gene ace1; native enzyme in collagenase-treated, dissociated terminal abdominal ganglia of males; not purified
In words: modified Ellman assay, absorbance […] nm. Format: biochemical, Periplaneta americana. The note with it: acetylthiocholine (0.1 mM stock), 15 min pre-incubation with bendiocarb, pH 7.2, 30 °C, no menthol; covalent; read-out: ED50 (the source's name).

SMILES strings stand for the structures.

As for `CNC(=O)Oc1cccc2c1OC(C)(C)O2` [bendiocarb], the IC50 was determined as 100 nM.
